Values quoted from earlier work in patent publication US9498464B2, “Treatment of arterial wall by combination of RAAS inhibitor and HMG-CoA reductase inhibitor” (ARTSKIN d.o.o., priority 2011, dated 2016).

Test system: arterial stiffness
Settings: 12 weeks, 80 mg then 160 mg/day, patients with type 2 diabetes and hypertension

## CCCCC(=O)N(Cc1ccc(-c2ccccc2-c2nnn[nH]2)cc1)[C@H](C(=O)O)C(C)C [valsartan]
  arterial stiffness (pulse wave analysis): improves arterial stiffness
